Reference: patent US20250257041A1, “INDUCERS OF INTEGRATED STRESS RESPONSE TO TREAT CANCER” (The Board of Regents of The University of Texas System, priority 2022, published 2025)
Like-named read-outs stand apart in the source and are kept apart here.

Experiments:
HCT116 WT = test: Proliferation of HCT116 colorectal cell line, Cell TiterGlo; assay type: cell-based, human
Method in brief: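 HCT116 colorectal cells, wild type, GCN2 CRISPR knockout, or wild type plus ISRIB; proliferation read by CellTiter-Glo luminescence. 10-point dose response in triplicate, IC50 reported; multiple values are independent experiments.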

HCT116 GCN2KO = test: Proliferation of HCT116 cells with GCN2 knocked out (CRISPR), Cell TiterGlo; assay type: cell-based, human; settings: Homo sapiens, HCT-116; HCT116 cells with GCN2 knocked out using CRISPR; read-out: HCT116 IC50 (uM) HCT116 − GCN2KO
Procedure: Briefly, compounds were tested for their effect on proliferation of HCT116 colorectal cell lines using Cell TiterGlo (Promega). Each compound was tested in a 10-point dose response experiment in triplicate. Multiple values in the column titled HCT116 WT reflect separate independent experiments. The three columns titled “HCT116 WT (repeat)”, “HCT116-CGN2KO” and “HCT116 WT+ISRIB” provide data for selected compounds that were tested simultaneously under three conditions. The HCT116 WT column lists IC50 against the wild type HCT116 colorectal cancer cell line. The HCT116-CGN2KO lists IC50 data for cells in which one component of the integrated stress response, GCN2, has been knocked out using CRISPR technology.

[1] = Homo sapiens, HCT-116, wild type HCT116, 10-point dose response in triplicate, multiple values = separate independent experiments, read-out: HCT116 IC50 (uM) HCT116 WT
[2] = Homo sapiens, HCT-116, wild type HCT116, tested simultaneously with GCN2KO and +ISRIB, read-out: HCT116 IC50 (uM) HCT116 WT (repeat)
[3] = wild type HCT116, compound plus 10 nM of ISRIB, read-out: HCT116 IC50 (uM) HCT116 WT + ISRIB

Row | Compound | IC50 (HCT116 WT; [1]) [µM] | IC50 (HCT116 WT; [2]) [µM] | IC50 (HCT116 GCN2KO) [µM] | IC50 (HCT116 WT; [3]) [µM]
1 | C#Cc1ccc(C(=O)Nc2cc(-c3ccc(NC(=O)c4ccccc4)cc3)nn2C)cc1 [SW389008, N-(3-(4-Benzamidophenyl)-1-methyl-1H-pyrazol-5-yl)-4-ethynylbenzamide] | > 50 | ≥ 50 | ≥ 50 | 
2 | C#CCOc1ccc(C(=O)c2ccc(C(=O)Nc3ccc(-c4cc(NC(=O)c5ccccc5)n(C)n4)cc3)cc2)cc1 [SW389010, N-(4-(5-Benzamido-1-methyl-1H-pyrazol-3-yl)phenyl)-4-(4-(prop-2-yn-1-yloxy)benzoyl)benzamide] | 20 | 43.1 | 41.1 | 
3 | C#CCOc1ccc(C(=O)c2ccc(C(=O)Nc3cc(-c4ccc(NC(=O)c5ccccc5)cc4)nn3C)cc2)cc1 [SW389012, N-(3-(4-Benzamidophenyl)-1-methyl-1H-pyrazol-5-yl)-4-(4-(prop-2-yn-1-yloxy)benzoyl)benzamide] | > 50 | 7.01 | 19.2 | 
4 | C#Cc1cccc(C(=O)Nc2ccc(-c3cc(NC(=O)c4ccccc4)n(C)n3)cc2)c1 [SW389013, N-(4-(5-Benzamido-1-methyl-1H-pyrazol-3-yl)phenyl)-3-ethynylbenzamide] | 2.79 | 4.21 | 15.8 | 19.8
5 | C#CCOc1ccc(C(=O)c2cccc(C(=O)Nc3cc(-c4ccc(NC(=O)c5ccccc5)cc4)nn3C)c2)cc1 [SW389152, N-(3-(4-Benzamidophenyl)-1-methyl-1H-pyrazol-5-yl)-3-(4-(prop-2-yn-1-yloxy)benzoyl)benzamide] | 0.305 | 0.31 | 0.65 | 0.71
6 | COC(=O)c1cccc(C(=O)Nc2cc(-c3ccc(NC(=O)c4ccccc4)cc3)nn2C)c1 [SW389153, Methyl 3-((3-(4-benzamidophenyl)-1-methyl-1H-pyrazol-5-yl)carbamoyl)benzoate] | 0.208 | 0.2 | 1.31 | 1.73
7 | Cn1nc(-c2ccc(NC(=O)c3ccccc3)cc2)cc1NC(=O)c1cccc(C(=O)c2ccccc2)c1 [SW389154, N-(3-(4-Benzamidophenyl)-1-methyl-1H-pyrazol-5-yl)-3-benzoylbenzamide] | 0.195 | 0.18 | 0.53 | 0.77
8 | Cn1nc(-c2ccc(NC(=O)c3ccccc3)cc2)cc1NC(=O)c1cccc(C(F)(F)F)c1 [SW389155, N-(3-(4-Benzamidophenyl)-1-methyl-1H-pyrazol-5-yl)-3-(trifluoromethyl)benzamide] | 0.416 | 0.46 | 2.2 | 2.97
9 | Cc1cccc(C(=O)Nc2cc(-c3ccc(NC(=O)c4ccccc4)cc3)nn2C)c1 [SW389156, N-(3-(4-Benzamidophenyl)-1-methyl-1H-pyrazol-5-yl)-3-methylbenzamide] | 0.298 | 0.28 | 2.22 | 2.45
10 | Cn1nc(-c2ccc(NC(=O)c3ccccc3)cc2)cc1NC(=O)c1cccc(N=[N+]=[N-])c1 [SW389157, 3-Azido-N-(3-(4-benzamidophenyl)-1-methyl-1H-pyrazol-5-yl)benzamide] | 0.405 | 0.21 | 2.77 | 2.5
11 | Cn1nc(-c2ccc(NC(=O)c3ccccc3)cc2)cc1NC(=O)c1cccc(C#N)c1 [SW389158, N-(3-(4-Benzamidophenyl)-1-methyl-1H-pyrazol-5-yl)-3-cyanobenzamide] | 0.561 | 0.39 | 2.96 | 3.01
12 | Cn1nc(-c2ccc(NC(=O)c3ccccc3)cc2)cc1NC(=O)c1cccc(F)c1 [SW389159, N-(3-(4-Benzamidophenyl)-1-methyl-1H-pyrazol-5-yl)-3-fluorobenzamide] | 0.788 | 0.38 | 2.54 | 2.59
13 | Cn1nc(-c2ccc(NC(=O)c3ccccc3)cc2)cc1NC(=O)c1cccc(Cl)c1 [SW389161, N-(3-(4-benzamidophenyl)-1-methyl-1H-pyrazol-5-yl)-3-chlorobenzamide] | 1.27 | 1.06 | 11.7 | 8.26
14 | Cn1nc(-c2ccc(NC(=O)c3ccccc3)cc2)cc1NC(=O)c1cccc(Br)c1 [SW389162, N-(3-(4-benzamidophenyl)-1-methyl-1H-pyrazol-5-yl)-3-bromobenzamide] | 0.335 | 0.32 | 3.14 | 2.6
